Patent US9604964B2, “Dihydropyrazole GPR40 modulators” (BRISTOL-MYERS SQUIBB COMPANY, priority 2012, dated 2017)

How the values were obtained:
human GPR40 [1] = biological target: T1, human GPR40 (Homo sapiens, UniProt O14842); test: GPR40 IP-One HTRF assay in HEK293/GPR40 inducible cell lines; assay type: cell-based; parameters: expressed in transfected cells; conditions: HEK293 cells, tetracycline-inducible human GPR40, IP-One HTRF; read-out: hGPR40 IP1 EC50
Procedure: GPR40 IP-One HTRF Assays in HEK293/GPR40 Inducible Cell Lines
Human, mouse and rat GPR40-mediated intracellular IP-One HTRF assays were established using human embryonic kidney HEK293 cells stably transfected with a tetracycline-inducible human, mouse or rat GPR40 receptor. Cells were routinely cultured in growth medium containing DMEM (Gibco Cat. #:12430-047), 10% qualified FBS (Sigma, Cat. #: F2442), 200 μg/mL hygromycin (Invitrogen, Cat. #: 16087-010) and 1.5 μg/mL blasticidin (Invitrogen, Cat. # R210-01). About 12-15 million cells were passed into a T175 tissue culture flask (BD Falcon 353112) with growth medium and incubated for 16-18 hours (overnight) at 370 C with 5% CO2. The next day, assay medium was exchanged with growth medium containing 1000 ng/mL of tetracycline (Fluka Analytical, Cat. #87128) to induce GPR40 expression for 18-24 hours at […] incubator with 5% CO2. After induction, the cells were washed with PBS (Gibco, Cat. #14190-036) and detached with Cell Stripper (Cellgro, Cat. #25-056-CL). 10-20 mL growth medium were added to the flask and cells were collected in 50 mL tubes (Falcon, Cat.#:352098) and spun at 1000 RPM for 5 minutes. Culture medium was aspirated and the cells were resuspended in 10 mL of 1×IP-One Stimulation Buffer from the Cisbio IP-One kit (Cisbio, Cat. #62IPAPEJ). The cells were diluted to 1.4×10^6 cells/mL in Stimulation Buffer.
Test compounds were 3-fold, 11-point serially diluted in DMSO in a REMP assay plate (Matrix Cat. #: 4307) by BioCel (Agilent). The compounds were transferred into an Echo plate (LABCYTE, Cat. #: LP-0200) and 20 nL of diluted compounds were transferred to an assay plate (proxi-plate from Perkin Elmer, Cat. #6008289) by Echo acoustic nano dispenser (LABCYTE, model ECHO550). 14 μL of the diluted cells were then added to the assay plate by Thermo (SN 836 330) Combi Drop and incubated at room temperature for 45 minutes. Then 3 μL of IP1 coupled to dye D2 from the Cisbio IP-One kit were added to the assay plate followed by 3 μL of Lumi4TM-Tb cryptate K from the kit. The plate was further incubated at room for 1 hour before reading on the Envision (Perkin Elmer Model2101) with an HTRF protocol. Activation data for the test compound over a range of concentrations was plotted as percentage activation of the test compound (100%=maximum response). After correcting for background [(sample read-mean of low control)/(mean of high control−mean of low control)] (low control is DMSO without any compound), EC50 values were determined. The EC50 is defined as the concentration of test compound which produces 50% of the maximal response and was quantified using the 4 parameter logistic equation to fit the data.

human GPR40 [2] = biological target: T1, human GPR40; test: FDSS-based intracellular calcium assay (Human GPR40 in vitro assay); assay type: cell-based; parameters: 3xFLAG; expressed in transfected cells; conditions: intracellular Ca2+ response, cells expressing GPR40; read-out: hGPR40 EC50
Procedure: FDSS-based Intracellular Calcium Assay
Compounds are dissolved in DMSO and diluted to desired concentrations with assay buffer and added to the cells as 3× solution (20 μL per well). Run fluorescence/luminescence reader FDSS (Hamamatsu) to read intracellular Ca^2+ response.

T1 sequence (O14842 whole entry): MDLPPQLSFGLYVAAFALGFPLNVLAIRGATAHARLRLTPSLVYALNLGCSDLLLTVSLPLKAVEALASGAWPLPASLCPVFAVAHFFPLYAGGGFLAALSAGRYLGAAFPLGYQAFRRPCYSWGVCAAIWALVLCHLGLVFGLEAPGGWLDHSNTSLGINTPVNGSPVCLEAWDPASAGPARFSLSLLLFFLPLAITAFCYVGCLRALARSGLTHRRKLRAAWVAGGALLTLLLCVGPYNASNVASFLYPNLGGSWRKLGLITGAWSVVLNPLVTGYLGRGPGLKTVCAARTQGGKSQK

Row | SMILES | EC50 (human GPR40 [1]) | EC50 (human GPR40 [2])
1 | CCOc1ccc(F)c(N2CCC(Oc3ccc(N4N=C(C(F)(F)F)[C@@H](C)[C@@H]4CC(=O)O)cc3)C(Cc3ccccc3)C2)c1 (single isomer, unassigned) [Example 28 (Isomer 2)] | 0.23 µM | 1.32 µM
2 | CCOc1ccc(F)c(N2CCC(Oc3ccc(N4N=C(C(F)(F)F)[C@@H](C)[C@@H]4CC(=O)O)cc3)C(OC)C2)c1 (single isomer, unassigned) [Example 31 (Isomer 1)] | 0.013 µM | 0.473 µM
3 | COc1cc(N2CCC(Oc3ccc(N4N=C(C(F)(F)F)[C@@H](C)[C@@H]4CC(=O)O)cn3)C(C)C2)c(Cl)cn1 (single isomer, unassigned) [Example 103 Isomer 2] | 0.043 µM | 0.096 µM
4 | CCOc1ccc(F)c(N2CC[C@@H](Oc3ccc(N4N=C(c5ccc(S(C)(=O)=O)cc5)[C@@H](C)[C@@H]4CC(=O)O)cc3)[C@H](C)C2)c1 [Example 98, 2-((4S,5S)-1-(4-(((3R,4R)-1-(5-ethoxy-2-fluorophenyl)-3-methylpiperidin-4-yl)oxy)phenyl)-4-methyl-3-(4-(methylsulfonyl)phenyl)-4,5-dihydro-1H-pyrazol-5-yl)acetic acid] | 0.025 µM | 0.083 µM
5 | COc1cccc(N2CCC(Cc3ccc(N4N=C(c5ccc(F)cc5)[C@@H](C)[C@@H]4CC(=O)O)cc3)CC2)c1 [Example 101, 2-((4S,5S)-3-(4-fluorophenyl)-1-(4-((1-(3-methoxyphenyl)piperidin-4-yl)methyl)phenyl)-4-methyl-4,5-dihydro-1H-pyrazol-5-yl)acetic acid] | 0.04 µM | 0.281 µM
6 | C[C@@H]1C(C(F)(F)F)=NN(c2ccc(OC3CCN(c4cc(O)ccc4F)CC3)cc2)[C@H]1CC(=O)O [Example 102, 2-((4S,5S)-1-(4-((1-(2-fluoro-5-hydroxyphenyl)piperidin-4-yl)oxy)phenyl)-4-methyl-3-(trifluoromethyl)-4,5-dihydro-1H-pyrazol-5-yl)acetic acid] | 0.131 µM | 
7 | COc1cc(N2CC[C@@H](Oc3ccc(N4N=C(C(F)(F)F)[C@@H](C)[C@@H]4CC(=O)O)cc3)[C@H](CC#N)C2)c(Cl)cn1 [Example B2, 2-((4S,5S)-1-(4-(((3R,4R)-1-(5-chloro-2-methoxypyridin-4-yl)-3-(cyanomethyl)piperidin-4-yl)oxy)phenyl)-4-methyl-3-(trifluoromethyl)-4,5-dihydro-1H-pyrazol-5-yl)acetic acid] | 0.362 µM | 0.586 µM
8 | C[C@@H]1C(C(F)(F)F)=NN(c2ccc(OCC3CN(C(=O)OC(C)(C)C)C3)cc2)[C@H]1CC(=O)O [Example B30, 2-((4S,5S)-1-(4-((1-(tert-Butoxycarbonyl)azetidin-3-yl)methoxy)phenyl)-4-methyl-3-(trifluoromethyl)-4,5-dihydro-1H-pyrazol-5-yl)acetic acid] |  | 2.77 µM
9 | C[C@@H]1C(C(F)(F)F)=NN(c2ccc(OCC3CN(S(=O)(=O)C4CCCCC4)C3)cc2)[C@H]1CC(=O)O [Example B31, 2-((4S,5S)-1-(4-((1-(Cyclohexylsulfonyl)azetidin-3-yl)methoxy)phenyl)-4-methyl-3-(trifluoromethyl)-4,5-dihydro-1H-pyrazol-5-yl)acetic acid] |  | 3.77 µM
10 | COc1cccc(N2CC(COc3ccc(N4N=C(C(F)(F)F)[C@@H](C)[C@@H]4CC(=O)O)cc3)C2)c1 [Example B32, 2-((4S,5S)-1-(4-((1-(3-Methoxyphenyl)azetidin-3-yl)methoxy)phenyl)-4-methyl-3-(trifluoromethyl)-4,5-dihydro-1H-pyrazol-5-yl)acetic acid] |  | 1.09 µM
11 | COc1cc(N2CC(COc3ccc(N4N=C(C(F)(F)F)[C@@H](C)[C@@H]4CC(=O)O)cc3)C2)c(Cl)cn1 [Example B33, 2-((4S,5S)-1-(4-((1-(5-chloro-2-methoxypyridin-4-yl)azetidin-3-yl)methoxy)phenyl)-4-methyl-3-(trifluoromethyl)-4,5-dihydro-1H-pyrazol-5-yl)acetic acid] |  | 0.713 µM
12 | C[C@@H]1C(C(F)(F)F)=NN(c2ccc(OCC3CN(c4ccc5c(c4)OCO5)C3)cc2)[C@H]1CC(=O)O [Example B34, 2-((4S,5S)-1-(4-((1-(benzo[d] [1,3]dioxol-5-yl)azetidin-3-yl)methoxy)phenyl)-4-methyl-3-(trifluoromethyl)-4,5-dihydro-1H-pyrazol-5-yl)acetic acid] |  | 4.76 µM
13 | COc1ccc(F)c(N2CC(COc3ccc(N4N=C(C(F)(F)F)[C@@H](C)[C@@H]4CC(=O)O)cc3)C2)c1 [Example B35, 2-((4S,5S)-1-(4-((1-(2-fluoro-5-methoxyphenyl)azetidin-3-yl)methoxy)phenyl)-4-methyl-3-(trifluoromethyl)-4,5-dihydro-1H-pyrazol-5-yl)acetic acid] |  | 4.76 µM
14 | COc1cc(N2CC(CCc3ccc(N4N=C(C(F)(F)F)[C@@H](C)[C@@H]4CC(=O)O)cc3)C2)c(Cl)cn1 [Example B36, 2-((4S,5S)-1-(4-(2-(1-(5-chloro-2-methoxypyridin-4-yl)azetidin-3-yl)ethyl)phenyl)-4-methyl-3-(trifluoromethyl)-4,5-dihydro-1H-pyrazol-5-yl)acetic acid] |  | 0.591 µM
15 | COc1cc(N2CCC(Oc3ccc(N4N=C(C(F)(F)F)[C@@H](C)[C@@H]4CC(=O)O)cc3)C3(CC3)C2)c(Cl)cn1 (stereo partly drawn) [Example B37, 2-((4S,5S)-1-(4-((5-(5-chloro-2-methoxypyridin-4-yl)-5-azaspiro[2.5]octan-8-yl)oxy)phenyl)-4-methyl-3-(trifluoromethyl)-4,5-dihydro-1H-pyrazol-5-yl)acetic acid] |  | 0.774 µM
